Counter-ions that a name gives are not always drawn.
Columns and labels:
SV40-Luc = SV40-Luc control luciferase reporter assay, SV 5A8 cell line (SV40-Luc and SV40-R-Luc), control for non-specific inhibitors; type: cell-based, human; settings: SV 5A8 cells derived from SW480, 24 hours of incubation with compound, ratio Firefly/Renilla luciferase
Summary of the method: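 SW480-derived lines with integrated reporters: SV 5A8 (SV40 firefly plus SV40 Renilla), Tcf 33.13 and Tcf 22C11 (Tcf-4 firefly plus SV40 Renilla). Cells seeded 1×10^4/well, compounds added 20-24 h later at titrated concentrations (final DMSO 0.316%) for 24 h. Firefly/Renilla ratio, as % of control, gave IC50 (nM).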

β-catenin/Tcf-4 = assay: cells; type: cell-based; settings: 24 hours of incubation with compound, ratio Firefly/Renilla luciferase
Summary of the method: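 SW480-derived lines with integrated reporters (Tcf-4-driven firefly luciferase; SV40 firefly as specificity control; SV40 Renilla for cell number/toxicity), treated 24 hours with titrated compounds, final 0.316% DMSO. Dual-luciferase read-out; firefly/Renilla ratio as % of control, duplicate plates, IC50 (nM) from curve fit.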

[1] = Homo sapiens, SW480, 24 h, Tcf 33.13 cells derived from SW480
[2] = Homo sapiens, Tcf22C11, 24 h, Tcf 22C11 cells derived from SW480
[3] = Tcf 22C11 cells derived from SW480
[4] = Tcf 33.13 cells derived from SW480

| Molecule | melting point | IC50 (SV40-Luc; Homo sapiens, SV5A8, 24 h) | IC50 (β-catenin/Tcf-4; [1]) | IC50 (β-catenin/Tcf-4; [2]) | IC50 (SV40-Luc) | IC50 (β-catenin/Tcf-4; [3]) | IC50 (β-catenin/Tcf-4; [4]) |
| --- | --- | --- | --- | --- | --- | --- | --- |
| C=Cc1ccc2c(NCc3ccc(NC(=O)c4ccc(F)cc4)cc3)nc(N(C)C)nc2c1 (as salt: HCl) [Example 87, N-[4-({[2-(dimethylamino)-7-vinylquinazolin-4-yl]amino}methyl)phenyl]-4-fluorobenzamide] | 145 °C | – | – | – | – | – | – |
| Cc1ccc2c(NCc3ccc(NC(=O)C4CCN(Cc5ccc(F)cc5F)CC4)cc3)nc(N(C)C)nc2c1 [Example 254, 1-(2,4-difluorobenzyl)-N-[4-({[2-(dimethylamino)-7-methylquinazolin-4-yl]amino}methyl)phenyl]piperidine-4-carboxamide] | – | > 4590 nM | 85 nM | 168 nM | – | – | – |
| Cc1ccc2c(NCc3ccc(NC(=O)C4CCN(Cc5ccc(F)cc5Cl)CC4)cc3)nc(N(C)C)nc2c1 [Example 258, 1-(2-chloro-4-fluorobenzyl)-N-[4-({[2-(dimethylamino)-7-methylquinazolin-4-yl]amino}methyl)phenyl]piperidine-4-carboxamide] | – | > 7890 nM | 215 nM | 521 nM | – | – | – |
| Cc1ccc2c(NCc3ccc(NC(=O)C4CCN(Cc5c(F)cc(F)cc5F)CC4)cc3)nc(N(C)C)nc2c1 [Example 260, N-[4-({[2-(dimethylamino)-7-methylquinazolin-4-yl]amino}methyl)phenyl]-1-(2,4,6-trifluorobenzyl)piperidine-4-carboxamide] | – | > 7870 nM | 203 nM | 215 nM | – | – | – |
| Cc1ccc2c(NCc3ccc(NC(=O)C4CCN(Cc5cc(F)ccc5F)CC4)cc3)nc(N(C)C)nc2c1 [Example 262, 1-(2,5-difluorobenzyl)-N-[4-({[2-(dimethylamino)-7-methylquinazolin-4-yl]amino}methyl)phenyl]piperidine-4-carboxamide] | – | > 4590 nM | 184 nM | 213 nM | – | – | – |
| CNc1nc(NCc2ccc(NC(=O)c3ccc(C#N)cc3)cc2)c2cccc(C)c2n1 [Example 266, 4-cyano-N-[4-({[8-methyl-2-(methylamino)quinazolin-4-yl]amino}methyl)phenyl]benzamide] | – | > 4660 nM | 962 nM | 1100 nM | – | – | – |
| Cc1ccc2c(N[C@H](C)c3ccc(NC(=O)c4ccc(Cl)nc4)cc3)nc(N(C)C)nc2c1 [Example 270, (R)-6-chloro-N-(4-(1-(2-(dimethylamino)-7-methylquinazolin-4-ylamino)ethyl)phenyl)nicotinamide] | – | > 10100 nM | 372 nM | 429 nM | – | – | – |
| Cc1ccc2c(N[C@@H](C)c3ccc(NC(=O)c4ccc(F)cc4)cc3)nc(N(C)C)nc2c1 [Example 271, (S)—N-(4-(1-(2-(dimethylamino)-7-methylquinazolin-4-ylamino)ethyl)phenyl)-4-fluorobenzamide] | – | > 5640 nM | 1080 nM | 970 nM | – | – | – |
| Cc1ccc2c(N[C@H](C)c3ccc(NC(=O)c4ccc(F)cc4)cc3)nc(N(C)C)nc2c1 [Example 272, (R)—N-(4-(1-(2-(dimethylamino)-7-methylquinazolin-4-ylamino)ethyl)phenyl)-4-fluorobenzamide] | – | > 5420 nM | 986 nM | 894 nM | – | – | – |
| Cc1cccc2c(N[C@@H](C)c3ccc(NC(=O)c4ccc(Cl)nc4)cc3)nc(N(C)C)nc12 [Example 273, (S)-6-chloro-N-(4-(1-(2-(dimethylamino)-8-methylquinazolin-4-ylamino)ethyl)phenyl)nicotinamide] | – | > 9360 nM | 3950 nM | > 2340 nM | – | – | – |
| Cc1ccc2nc(N(C)C)nc(N[C@@H](C)c3ccc(NC(=O)c4ccc(Cl)nc4)cc3)c2c1 [Example 274, (S)-6-chloro-N-(4-(1-(2-(dimethylamino)-6-methylquinazolin-4-ylamino)ethyl)phenyl)nicotinamide] | – | > 9360 nM | 1840 nM | 1010 nM | – | – | – |
| CNc1nc(N[C@H](C)c2ccc(NC(=O)c3ccc(F)cc3)cc2)c2cccc(C)c2n1 [Example 276, (R)-4-fluoro-N-(4-(1-(8-methyl-2-(methylamino)quinazolin-4-ylamino)ethyl)phenyl)benzamide] | – | > 2490 nM | 494 nM | 653 nM | – | – | – |
| N-(4-{[(2-azetidin-1-yl-7-methylquinazolin-4-yl)amino]methyl}phenyl)-1-benzylpiperidine-4-carboxamide [Example 137] | – | – | – | – | > 17300 nM | 1260 nM | 1130 nM |
| N-{4-[({6,8-dimethyl-2-[(3S)-3-methylpiperazin-1-yl]quinazolin-4-yl}amino)methyl]phenyl}-4-fluorobenzamide [Example 50] | – | – | – | – | > 5010 nM | > 1250 nM | 1490 nM |

Further lines, results first:

| melting point | IC50 (SV40-Luc; Homo sapiens, SV5A8, 24 h) | IC50 (β-catenin/Tcf-4; [1]) | IC50 (β-catenin/Tcf-4; [2]) | IC50 (SV40-Luc) | IC50 (β-catenin/Tcf-4; [3]) | IC50 (β-catenin/Tcf-4; [4]) | Molecule |
| --- | --- | --- | --- | --- | --- | --- | --- |
| 270 °C | – | – | – | – | – | – | CCc1ccc2c(NCc3ccc(NC(=O)c4ccc(F)cc4)cc3)nc(N(C)C)nc2c1 (as salt: HCl) [Example 88, N-[4-({[2-(dimethylamino)-7-ethylquinazolin-4-yl]amino}methyl)phenyl]-4-fluorobenzamide] |
| 150 °C | – | – | – | – | – | – | CN(C)c1nc(NCc2ccc(NC(=O)c3ccc(F)cc3)cc2)c2ccc(C#N)cc2n1 (as salt: HCl) [Example 89, N-[4-({[7-cyano-2-(dimethylamino)quinazolin-4-yl]amino}methyl)phenyl]-4-fluorobenzamide] |
| – | > 8340 nM | 332 nM | 568 nM | – | – | – | Cc1ccc2c(NCc3ccc(NC(=O)C4CCN(Cc5ccccc5F)CC4)cc3)nc(N(C)C)nc2c1 [Example 252, N-[4-({[2-(dimethylamino)-7-methylquinazolin-4-yl]amino}methyl)phenyl]-1-(2-fluorobenzyl)piperidine-4-carboxamide] |
| – | > 4060 nM | 255 nM | 390 nM | – | – | – | Cc1ccc2c(NCc3ccc(NC(=O)C4CCN(Cc5ccc(Cl)cc5)CC4)cc3)nc(N(C)C)nc2c1 [Example 253, 1-(4-chlorobenzyl)-N-[4-({[2-(dimethylamino)-7-methylquinazolin-4-yl]amino}methyl)phenyl]piperidine-4-carboxamide] |
| – | > 8080 nM | 906 nM | 1190 nM | – | – | – | Cc1ccc2c(NCc3ccc(NC(=O)C4CCN(Cc5ccncc5)CC4)cc3)nc(N(C)C)nc2c1 [Example 257, N-[4-({[2-(dimethylamino)-7-methylquinazolin-4-yl]amino}methyl)phenyl]-1-(pyridin-4-ylmethyl)piperidine-4-carboxamide] |
| – | > 8100 nM | 415 nM | 573 nM | – | – | – | Cc1ccc2c(NCc3ccc(NC(=O)C4CCN(Cc5ccc(Cl)nc5)CC4)cc3)nc(N(C)C)nc2c1 [Example 259, 1-[(6-chloropyridin-3-yl)methyl]-N-[4-({[2-(dimethylamino)-7-methylquinazolin-4-yl]amino}methyl)phenyl]piperidine-4-carboxamide] |
| – | > 4170 nM | 328 nM | 347 nM | – | – | – | Cc1ccc2c(NCc3ccc(NC(=O)C4CCN(Cc5cccc(F)c5)CC4)cc3)nc(N(C)C)nc2c1 [Example 261, N-[4-({[2-(dimethylamino)-7-methylquinazolin-4-yl]amino}methyl)phenyl]-1-(3-fluorobenzyl)piperidine-4-carboxamide] |
| – | > 1970 nM | 410 nM | 422 nM | – | – | – | Cc1ccc2c(NCc3ccc(NC(=O)C4CCN(Cc5ccc(Cl)c(F)c5)CC4)cc3)nc(N(C)C)nc2c1 [Example 263, 1-(4-chloro-3-fluorobenzyl)-N-[4-({[2-(dimethylamino)-7-methylquinazolin-4-yl]amino}methyl)phenyl]piperidine-4-carboxamide] |
| – | > 4230 nM | 933 nM | 1140 nM | – | – | – | CNc1nc(NCc2ccc(NC(=O)c3ccc(Br)cc3)cc2)c2cccc(C)c2n1 [Example 265, 4-bromo-N-[4-({[8-methyl-2-(methylamino)quinazolin-4-yl]amino}methyl)phenyl]benzamide] |
| – | > 7870 nM | 203 nM | 215 nM | – | – | – | Cc1ccc2c(N[C@@H](C)c3ccc(NC(=O)C4CCN(Cc5ccc(F)c(F)c5)CC4)cc3)nc(N(C)C)nc2c1 [Example 268, 1-(3,4-difluorobenzyl)-N-[4-((1S)-1-{[2-(dimethylamino)-7-methylquinazolin-4-yl]amino}ethyl)phenyl]piperidine-4-carboxamide] |
| – | > 11300 nM | 319 nM | 439 nM | – | – | – | Cc1ccc2c(N[C@@H](C)c3ccc(NC(=O)c4ccc(Cl)nc4)cc3)nc(N(C)C)nc2c1 [Example 269, (S)-6-chloro-N-(4-(1-(2-(dimethylamino)-7-methylquinazolin-4-ylamino)ethyl)phenyl)nicotinamide] |
| – | > 1240 nM | 549 nM | 522 nM | – | – | – | CNc1nc(N[C@@H](C)c2ccc(NC(=O)c3ccc(F)cc3)cc2)c2cccc(C)c2n1 [Example 275, (S)-4-fluoro-N-(4-(1-(8-methyl-2-(methylamino)quinazolin-4-ylamino)ethyl)phenyl)benzamide] |
| – | – | – | – | > 23300 nM | > 23300 nM | > 23300 nM | N-[4-({[6-nitro-2-(methylamino)quinazolin-4-yl]amino}methyl)phenyl]nicotinamide [Example 188] |
